In US7109193B2, “Tricyclic diazepines tocolytic oxytocin receptor antagonists” (Wyeth, priority 2001, dated 2006) one finds melting point, inhibition and IC50 data, which are given here for ten compounds.

A word on the melting point: it is the temperature, or range, at which the solid turns liquid. In general, inhibition refers to the relative decrease from the control value, in per cent. By IC50 is commonly meant the midpoint of a concentration-inhibition curve.

Test system in the first data set: not given
Assay: not given
Conditions: not given
As to `Cc1cc(C(=O)N2Cc3ccc(C(=O)N4CCN(CCCN(C)C)CC4)n3Cc3ccccc32)ccc1-c1ccccc1C(F)(F)F` [Example 4, [4-(3-Dimethylaminopropyl)-piperazin-1-yl]-[10-(2-methyl-2′-trifluoromethyl-[1,1′-biphenyl]-4-yl)carbonyl]-[10,11-dihydro-5H-pyrrolo[2,1-c][1,4]benzodiazepin-3-yl]-methanone], the melting point is 85 to 95 °C.

For another data set, the target named is T1, human vasopressin V1a receptor subtype (Homo sapiens, UniProt P37288).
T1 construct: host or cells: CHO cells (pZeoSV vector for the Thibonnier line)
T1 sequence (P37288 whole entry): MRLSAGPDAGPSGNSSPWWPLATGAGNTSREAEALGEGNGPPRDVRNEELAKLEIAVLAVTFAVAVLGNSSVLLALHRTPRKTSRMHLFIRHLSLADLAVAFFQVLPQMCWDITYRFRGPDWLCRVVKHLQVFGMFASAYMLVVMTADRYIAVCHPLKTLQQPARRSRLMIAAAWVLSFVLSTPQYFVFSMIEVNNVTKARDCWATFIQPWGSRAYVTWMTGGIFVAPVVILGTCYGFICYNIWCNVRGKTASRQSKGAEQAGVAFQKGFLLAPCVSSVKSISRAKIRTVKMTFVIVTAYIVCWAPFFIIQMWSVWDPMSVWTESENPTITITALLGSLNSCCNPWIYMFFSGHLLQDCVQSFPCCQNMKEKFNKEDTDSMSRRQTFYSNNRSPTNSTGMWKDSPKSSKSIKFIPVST
In words: Vasopressin binding in Chinese Hamster Ovary cell membranes expressing human vasopressin V1a subtype receptors. The following applies: 100 nM, CHO cell membranes, [3H]Manning ligand, values without parentheses. In outline:
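Displacement of [3H]Manning ligand (8 nM working solution) from human V1a receptors in CHO cell membranes, 25–50 μg protein per well. Incubation ran 60 min at room temperature in 50 mM Tris-HCl pH 7.4 with protease inhibitors, followed by filtration and scintillation counting. Results are given as IC50 or percent inhibition.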
With `Cc1cc(C(=O)N2Cc3ccc(C(=O)N4CCN(CCCN(C)C)CC4)n3Cc3ccccc32)ccc1-c1ccccc1C(F)(F)F` [Example 4, [4-(3-Dimethylaminopropyl)-piperazin-1-yl]-[10-(2-methyl-2′-trifluoromethyl-[1,1′-biphenyl]-4-yl)carbonyl]-[10,11-dihydro-5H-pyrrolo[2,1-c][1,4]benzodiazepin-3-yl]-methanone], the inhibition at 0.1 µM is 14%.
Still for that read-out and setting: next, `COc1cc(C(=O)N2Cc3ccc(C(=O)N(C)CCCN(C)C)n3Cc3ccccc32)ccc1-c1cccc2ccccc12` [Example 106, N-[3-(Dimethylamino)propyl]-10-[3-methoxy-4-(1-naphthyl)benzoyl]-N-methyl-10,11-dihydro-5H-pyrrolo[2,1-c][1,4]benzodiazepine-3-carboxamide]: 22%.
Consider `Cc1ccccc1-c1ccc(C(=O)N2Cc3ccc(C(=O)N(C)CCCN(C)C)n3Cc3ccccc32)cc1` [Example 104, N-[3-(Dimethylamino)propyl]-N-methyl-10-[(2′-methyl[1,1′-biphenyl]-4-yl)carbonyl]-10,11-dihydro-5H-pyrrolo[2,1-c][1,4]benzodiazepine-3-carboxamide], for which the inhibition at 0.1 µM is 85%.
On the same count and under the same terms, next, `COc1ccccc1-c1ccc(C(=O)N2Cc3ccc(C(=O)NCCCN(C)C)n3Cc3ccccc32)cc1OC` [Example 81, 10-[(2,2′-Dimethoxy[1,1′-biphenyl]-4-yl)carbonyl]-N-[3-(dimethylamino)propyl]-10,11-dihydro-5H-pyrrolo[2,1-c][1,4]benzodiazepine-3-carboxamide]: 4%; `COc1ccccc1-c1ccc(C(=O)N2Cc3ccc(C(=O)N(C)CCCN(C)C)n3Cc3ccccc32)cc1` [Example 103, N-[3-(Dimethylamino)propyl]-10-[(2′-methoxy[1,1′-biphenyl]-4-yl)carbonyl]-N-methyl-10,11-dihydro-5H-pyrrolo[2,1-c][1,4]benzodiazepine-3-carboxamide]: 43%.

Still in this data set, the particulars now being: CHO cell membranes, [3H]Manning ligand, values in parentheses.
In the case of `Cc1cc(C(=O)N2Cc3ccc(C(=O)N4CCN(C)CC4)n3Cc3ccccc32)ccc1-c1ccccc1C(F)(F)F` [Example 2, (4-Methyl-piperazin-1-yl)-[10-(2-methyl-2′-trifluoromethyl-[1,1′-biphenyl]-4-yl)-carbonyl]-10,11-dihydro-5H-pyrrolo[2,1-c][1,4]benzodiazepin-3-yl-methanone], the IC50 turned out to be 2.72 µM.
On the same count and under the same terms, then `C=CCN1CCN(C(=O)c2ccc3n2Cc2ccccc2N(C(=O)c2cc(Cl)c(-c4ccccc4C)cc2OC)C3)CC1` [Example 219, (4-Allyl-1-piperazinyl){10-[(6-chloro-3-methoxy-2′-methyl[1,1′-biphenyl]-4-yl)carbonyl]-10,11-dihydro-5H-pyrrolo[2,1-c][1,4]benzodiazepin-3-yl}methanone], with 1.81 µM; and `COc1cc(-c2ccccc2Cl)c(Cl)cc1C(=O)N1Cc2ccc(C(=O)N(C)C3CCN(C)CC3)n2Cc2ccccc21` [Example 43, 10-[(2′-Chloro-6-chloro-3-methoxy-[1,1′-biphenyl]-4-yl)carbonyl]-N-methyl-N-(1-methylpiperidin-4-yl)-10,11-dihydro-5H-pyrrolo[2,1-c][1,4]benzodiazepine-3-carboxamide], with 0.312 µM; and `COc1cccc(-c2ccc(C(=O)N3Cc4ccc(C(=O)N5CCC[C@H]5CN5CCCC5)n4Cc4ccccc43)cc2C)c1` [Example 263, {10-[(3′-Methoxy-2-methyl[1,1′-biphenyl]-4-yl)carbonyl]-10,11-dihydro-5H-pyrrolo[2,1-c][1,4]benzodiazepin-3-yl}[(2S)-2-(1-pyrrolidinylmethyl)pyrrolidinyl]methanone], with 0.202 µM.
Still for that read-out and setting: next, `Cc1cc(C(=O)N2Cc3ccc(C(=O)N(C)CCCN(C)C)n3Cc3ccccc32)ccc1-c1ccccc1C(F)(F)F` [Example 97, N-[3-(Dimethylamino)propyl]-N-methyl-10-{[2-methyl-2′-(trifluoromethyl)[1,1′-biphenyl]-4-yl]carbonyl}-10,11-dihydro-5H-pyrrolo[2,1-c][1,4]benzodiazepine-3-carboxamide]: 1.09 µM.
